Test results from patent publication US10583109B2, “Use of silver(I) complexes as anticancer agents” (University of Johannesburg, priority 2012, dated 2020).
“Also recorded” adds a separate entry of the source.

Tests used:
[1] = tested on: SNO-oesophageal cancer cells; experiment: Morphological features of SNO-oesophageal cancer cells by inverse light microscopy; assay type: cell-based; conditions: 10 μM, 24 hours of treatment
Method: Morphological studies were done by means of an Axiovert 25 inverted microscope (Carl Zeiss, Göttingen, Germany) with Axio Vision 3.1 software (Carl Zeiss, Göttingen, Germany) using an magnification of 100×.
After 24 hours of treatment with complexes (1)-(5) including their ligands the cells were examined under said Axiovert 25 inverted light microscope. This was done to determine how the complexes of the present invention influence morphology which was compared to 100 μM Cisplatin (apoptotic control) and 15% H2O2 (necrotic control).
Light microscope images indicating the morphology of the differentially treated SNO-oesophageal cancer cells is shown in FIG. 8. An untreated control (a) including 100 μM Cisplatin (b), an apoptotic control and 15% H2O2 (c), and a necrotic control was included. Cells were treated with 10 μM silver(I) thiocyanate phosphine complexes (1)-(5) as well as their separate ligands (Ligand-1 to Ligand-5, respectively) (FIGS. 8d to 8m). Black arrows represent signs of apoptosis, while the white arrows represent signs of necrosis.
An Axiovert 25 inverted microscope was used to examine if these complexes affect the morphological features of the malignant cells in any other way. This was done at a magnification of 100× with the use of Axio Version 3.1 software (Carl Zeiss, Gottingen, Germany).
Morphological studies where done after 24 hours of treatment to determine how these compounds influence/change specific features of the malignant SNO-oesophageal cancer cells, compared to the untreated (UC) and 1% DMSO vehicle control. The treated cancer cells including their controls were examined under an Axiovert 25 inverted light microscope (Carl Zeiss, Göttingen, Germany) with Axio Vision 3.1 software (Carl Zeiss, Göttingen, Germany) using a 100× magnification. In FIG. 19, the morphology of the different controls including Ligand-10 and complexes (10)-(12) are represented. To predict the targeting mechanisms of these compounds, the treated cells were compared to 100 μM Cisplatin (apoptotic control) and 25% H2O2 (necrotic control).

[2] = tested on: peripheral blood mononucleocytes (PBMCs); experiment: Trypan blue viability assay of PBMCs (non-cancerous cells); assay type: cell-based; conditions: PBMCs from a healthy donor
Description: To evaluate the relative toxicity on non-tumorigenic tissues, the ideal is to compare the effect of the compounds to a similar cell line that is non-cancerous. The Applicant is currently in the process of purchasing these cell lines and will evaluate the toxicity of the compounds in the near future. However, the Applicant did evaluate the effect of the complexes of the instant invention on peripheral blood mononucleocytes (PBMCs) isolated from fresh whole blood samples from a healthy donor. This already gives a good indication of the potential toxicity of complexes (1)-(5) in an in vivo environment.
The percentage viability of differentially treated PBMCs (peripheral blood mononucleocytes) for complexes (1)-(5) was determined by the Trypan blue viability assay, as shown in FIG. 10. Cells were treated with complexes (1)-(5). Cells treated with 0.1% DMSO and 100 μM Cisplatin were used as a vehicle and apoptotic control respectively. The SEM is indicated as error bars (n=2).

[3] = tested on: MCF-7 breast cancer cells; experiment: Morphological features of MCF-7 cells by inverse light microscopy; assay type: cell-based, human; conditions: 10 μM, 24 hours after treatment, compared to 100 μM Cisplatin apoptotic control
Method: The morphological features of MCF-7 cells following differential treatments were evaluated by inverse light microscopy as depicted in FIG. 4. Untreated cells served as the control, while 1% DMSO served as the solvent control and 100 μM Cisplatin indicates apoptotic cells. Cells were exposed to 10 μM of complexes (1)-(5). Morphological changes of the cell indicative of apoptosis include cell shrinkage and blebbing.
In the light of the decreased viability, the morphology of the cells was studied 24 hours after treatment with 10 μM of complexes (1), (2), (3), (4) and (5) to determine if apoptotic or necrotic features were present. The morphology of the cells was compared to the apoptotic control treated with 100 μM Cisplatin (FIG. 4).

Caspase-3/7 = experiment: Caspase-Glo 3/7 assay in SNO-oesophageal cancer cells; assay type: cell-based; parameters: increase in Caspase-3/7 expression: unit not given here; conditions: 10 μM, 24 hours treatment
Method: The Caspase-Glo®3/7 assay was used to confirm that the structural changes observed are due to apoptotic cell death. In this luminescent based assay, a 1:1 ratio of the Caspase-Glo® reagent was added to treated cells into a microtiter plate. The plate was gently agitated for 30 seconds and incubated for 30 minutes at room temperature. The whole luminescent intensity was measured using a Synergy HT Multi-Detection Microplate reader, where the intensity of the luminescence is proportional to the Caspase-3/7 concentration.
The error bars where constructed based on the standard error of the mean (SEM) where n=6. The significant difference were calculated with respect to the vehicle control (P<**0.001). A relative increase in expression was observed throughout.

A-549 lung cancer cells = experiment: AlamarBlue viability and proliferation assay of A-549 lung cancer cells; assay type: cell-based; conditions: 2.5 μM, 24 h
Method: A-549 lung cancer cells were maintained in DMEM supplemented with 10% fetal calf serum (FCS), 1 mM pyruvate, 2 mM L-glutamine (Highveld Biological, Kelvin, RSA), 1% antibiotics (penicillin, streptomycin, amphotericin (Highveld Biological, Kelvin, RSA) and gentamycin (Invitrogen Life Technologies, Eugene, Oreg.)).
Cells (1×10^4 cells/well) were plated in 96-well flat-bottomed plates and incubated for 24 h at 37° C. with 5% CO2. All compounds were preheated for 30 min prior treatment. After 24 h compounds (2.5 μM) were mixed with supplemented media and incubated for 24 h. For the untreated control supplemented media was used. Since all compounds were dissolved in DMSO, a 1% DMSO was used as a vehicle control.
The A-549 lung cancer cells were incubated at 37° C. for 3 h in the presence of 10% AlamarBlue® viability and proliferation assay (Invitrogen Life Technologies, Eugene, Oreg.). […] Fluorescence was measured at 530-560 nm (excitation) and 590 nm (emission).
FIG. 27 is a bar chart showing percentage cellular viability of fibroblast cells and A-549 lung cancer cells treated with various molar ratios (complexes (6)-(9)) using the AlamarBlue® cell viability assay whereby the molar ratio of the silver(I) nitrate salt: phosphine ligand of 1:1, 1:2, 1:3 and 1:4 was assessed. Fluorescence was measured with 530 nm excitation wavelength and 590 nm emission wavelength. […]

| Compound | necrotic cell death (morphology) [1] | toxicity on PBMCs (decrease in viability) [2] | cell morphology (apoptotic or necrotic features) [3] | increase in Caspase-3/7 expression (Caspase-3/7) | toxicity to A-549 lung cancer cells (A-549 lung cancer cells) |
| --- | --- | --- | --- | --- | --- |
| [AgSCN{P(4-FC6H4)3}2]2 [complex (3)] | Necrotic cell death was also observed | much lower degree of toxicity; also recorded: significantly lower degree of toxicity |  |  |  |
| C1#[N+][Ag]([P+](c2ccccc2)(c2ccccc2)c2ccccc2)([P+](c2ccccc2)(c2ccccc2)c2ccccc2)[S]C#[N+][Ag]([P+](c2ccccc2)(c2ccccc2)c2ccccc2)([P+](c2ccccc2)(c2ccccc2)c2ccccc2)[S]1 [complex (1), [AgSCN(PPh3)2]2] | Necrotic cell death was also observed |  | morphology characteristic of necrosis |  |  |
| c1ccc([P+](c2ccccc2)(c2ccccc2)[Ag+]([P+](c2ccccc2)(c2ccccc2)c2ccccc2)([P+](c2ccccc2)(c2ccccc2)c2ccccc2)[P+](c2ccccc2)(c2ccccc2)c2ccccc2)cc1 [complex (9), AgNO3(PPh3)4] |  |  |  | 2.74 | higher toxicity level |
